Test results published in patent publication US20240391889A1, “ANTIMICROBIAL COMPOUNDS AND THE METHODS OF USE” (priority 2021, published 2024).
Converted amounts (≈) assume the structure as drawn. Numbered stars: 1 amine (or outer) side, 2 acyl side, 3 side chain; on linkers, the order of the positions; unused ones are H or OH. Square brackets hold non-standard residues; d marks the D form. Peptide text beside a SMILES is read from it. N(tridecyl)Gly = CCCCCCCCCCCCCNCC(=O)O; X1 = CC(c1ccccc1)N(CC(=O)[*:2])[*:1]; NFurfurylGly = O=C(O)CNCc1ccco1; Gly(N(CH2)3NH2) = NCCCNCC(=O)O; Nphe = O=C(O)CNCc1ccccc1; NPrGly = CCCNCC(=O)O; Nlys = NCCCCNCC(=O)O

How the values were obtained:
C. glabrata = type: cell-based, Candida glabrata
C. auris = assay: MIC assay, C. auris; type: cell-based, Candida auris
[1] = system: single donor human red blood cells (hRBC)
C. albicans biofilm = assay: Fungal biofilm minimum inhibitory concentration assay (PrestoBlue); type: cell-based, Candida albicans
Protocol: The biofilm minimum inhibitory concentration (MIC) of peptoids against fungal pathogens C. albicans was determined following CLSI guidelines (CLSI. Reference method for broth dilution antifungal susceptibility testing of yeasts; approved standard-third edition; CLSI document M27 A3. Clinical and Laboratory Standards Institute, 2008). Colonies were transferred from a streaked YPD plate to 0.85% saline to reach an OD530 between 0.15 and 0.25. This inoculant was diluted 1:100 into RPMI-MOPS and then further diluted 1:20 into RPMI-MOPS. 200 μL of inoculant was seeded into each well of a 96 well black-walled plate. Plates were incubated overnight at 37° C. Media was gently removed and gently washed three times with PBS. RPMI-MOPS (198 μL) were added to each well. 2-fold serial dilutions of 100× peptoid solutions were prepared in water and 2 μL of peptoid were added to each well in triplicate then incubated at 37° C. for 24 hours. PRESTOBLUE (20 μL) was added to each well and incubated at 37° C. for one hour before measuring fluorescence on a SPECTRAMAX M5 plate reader (Ex. 555 nm; Em. 585 nm).

[2] = system: Acinetobacter baumanii ATCC 19606; type: cell-based, Acinetobacter baumannii; details: ATCC 19606, 24 h
From the text: This screening led to the discovery of RMG9-11 (FIG. 2C). The minimum inhibitory concentration (MIC) of resynthesized RMG9-11 was initially determined against C. albicans, C. neoformans, and the ESKAPE bacteria via CSLI guidelines (CLSI. Methods for Dilution Antimicrobial Susceptibility Tests for Bacteria That Grow Aerobically, 11th Edition. Clinical and Laboratory Standards Institute (2018); CLSI. Reference method for broth dilution antifungal susceptibility testing of yeasts; approved standard-third edition; CLSI document M27-A3. Clinical and Laboratory Standards Institute (2008)). […]
The minimum inhibitory concentration (MIC) of peptoids against the ESKAPE bacteria (Enterococcus faecium ATCC 6569; Staphylococcus aureus ATCC 29213; Klebsiella pneumoniae ATCC 13883; Acinetobacter baumanii ATCC 19606; Pseudomonas aeruginosa ATCC 25619; Enterococcus faecalis ATCC 29212; and Escherichia coli ATCC 25922) was determined following CLSI guidelines (CLSI. Methods for Dilution Antimicrobial Susceptibility Tests for Bacteria That Grow Aerobically, 11th Edition. Clinical and Laboratory Standards Institute, 2018). The MIC against Mycobacterium smegmatis was also determined following CLSI guidelines (Woods, G. L. et al. Susceptibility Testing of Mycobacteria, Nocardiae, and Other Aerobic Actinomycetes, 2nd edition. (2011)). […]

C. neoformans = type: cell-based, Cryptococcus neoformans
From the text: (§1) This screening led to the discovery of RMG9-11 (FIG. 2C). The minimum inhibitory concentration (MIC) of resynthesized RMG9-11 was initially determined against C. albicans, C. neoformans, and the ESKAPE bacteria via CSLI guidelines (CLSI. Methods for Dilution Antimicrobial Susceptibility Tests for Bacteria That Grow Aerobically, 11th Edition. Clinical and Laboratory Standards Institute (2018); CLSI. Reference method for broth dilution antifungal susceptibility testing of yeasts; approved standard-third edition; CLSI document M27-A3. Clinical and Laboratory Standards Institute (2008)). […] C. albicans clinical isolates include a reference strain (M1), fluconazole susceptible strains (M4 and M6), and fluconazole resistant strains (M2, M3, M5, and M7). ATCC 64124 is multidrug resistant C. albicans strain that is resistant to amphotericin B, fluconazole, caspofungin, and flucytosine. All MICs were performed under CSLI guidelines in triplicate on at least three different days.
(§2) The minimum inhibitory concentration (MIC) of peptoids against fungal pathogens C. albicans and C. neoformans was determined following CLSI guidelines (Reference method for broth dilution antifungal susceptibility testing of yeasts; approved standard-third edition; CLSI document M27-A3.” CLSI. 2008.). Colonies were transferred from a streaked YPD plate to 0.85% saline to reach an OD530 between 0.18 and 0.25. This inoculant was diluted 1:100 into RPMI-MOPS and then further diluted 1:20 into RPMI-MOPS. 198 μL of inoculant was seeded into each well of a 96 well black-walled plate. 2-fold serial dilutions of 100× peptoid solutions were prepared in water and 2 μL of peptoid were added to each well in triplicate. […] MIC was defined as the lowest concentration of compound preventing fungal growth. This assay was repeated 3 times on separate days with each compound.

C. albicans M1 = type: cell-based, Candida albicans; details: reference strain
From the text: as §1, §2

C. albicans M6 = type: cell-based, Candida albicans; details: fluconazole susceptible strain
From the text: as §1, §2

C. albicans ATCC 64124 = type: cell-based, Candida albicans; details: resistant to amphotericin B, fluconazole, caspofungin, flucytosine
From the text: as §1, §2

C. albicans M3 = type: cell-based, Candida albicans; details: fluconazole resistant strain
From the text: as §1, §2

[3] = system: fluconazole resistant and susceptible strains of C. albicans; type: cell-based, Candida albicans; details: regardless of fluconazole susceptibility
From the text: as §1, §2

C. albicans = type: cell-based, Candida albicans; details: planktonic, 24 h, RPMI-MOPS
From the text: as §1, §2

C. albicans M5 = type: cell-based, Candida albicans; details: fluconazole resistant strain
From the text: as §1, §2

C. albicans M2 = type: cell-based, Candida albicans; details: fluconazole resistant strain
From the text: as §1, §2

C. albicans M7 = type: cell-based, Candida albicans; details: fluconazole resistant strain
From the text: as §1, §2

C. albicans M4 = type: cell-based, Candida albicans; details: fluconazole susceptible strain
From the text: as §1, §2

Question: CCCCCCCCCCCCCNCC(=O)N(CCC)CC(=O)N(CC(=O)N(CCCCN)CC(=O)N(CC(=O)N(CC(=O)N(CCCN)CC(N)=O)Cc1ccccc1)Cc1ccco1)C(C)c1ccccc1 (stereo not drawn) [RMG9-11] (H-[N(tridecyl)Gly][NPrGly][X1][Nlys][NFurfurylGly][Nphe][Gly(N(CH2)3NH2)]-NH2) was tested. Which “MIC C. glabrata” value (C. glabrata) did it give?
Answer: The value was 6.25 µg/mL (≈ 5.99 µM).

Question: What about the “MIC C. auris” value (C. auris) of the same compound?
Answer: The value was 12.5 µg/mL (≈ 12 µM).

Question: And the “HC10 hRBC” value [1]?
Answer: Its value is 29 µg/mL.

Question: And the “increase of biofilm MIC compared to MIC” value (C. albicans biofilm; BMIC vs planktonic C. albicans MIC)?
Answer: The value was 16 fold.

Question: What about the “MIC C. albicans biofilm (BMIC)” value (C. albicans biofilm; established biofilm, 24 h) of the same compound?
Answer: Its value is 100 µg/mL (≈ 95.8 µM).

Question: And the “MIC A. baumannii” value [2]?
Answer: The value was 12.5 µg/mL (≈ 12 µM).

Question: What about the “improvement of MIC C. neoformans vs C. albicans” value (C. neoformans) of the same compound?
Answer: The value was 2 fold.

Question: What about the “MIC C. neoformans” value (C. neoformans; 72 h) of the same compound?
Answer: The value was 3.13 µg/mL (≈ 3 µM).

Question: And the “MIC C. albicans M1” value (C. albicans M1)?
Answer: Its value is 6.25 µg/mL (≈ 5.99 µM).

Question: What about the “MIC C. albicans M6” value (C. albicans M6) of the same compound?
Answer: The value was 6.25 µg/mL (≈ 5.99 µM).

Question: And the “MIC C. albicans ATCC 64124” value (C. albicans ATCC 64124)?
Answer: Its value is 6.25 µg/mL (≈ 5.99 µM).

Question: And the “MIC C. albicans M3” value (C. albicans M3)?
Answer: The value was 12.5 µg/mL (≈ 12 µM).

Question: And the “MICs against fluconazole resistant and susceptible strains of C. albicans” value [3]?
Answer: The value was 6.25 to 12.5 µg/mL.

Question: And the “MIC C. albicans” value (C. albicans)?
Answer: The value was 6.25 µg/mL (≈ 5.99 µM).

Question: What about the “MIC C. albicans M5” value (C. albicans M5) of the same compound?
Answer: The value was 12.5 µg/mL (≈ 12 µM).

Question: And the “MIC C. albicans M2” value (C. albicans M2)?
Answer: Its value is 12.5 µg/mL (≈ 12 µM).

Question: And the “MIC C. albicans M7” value (C. albicans M7)?
Answer: The value was 6.25 µg/mL (≈ 5.99 µM).

Question: What about the “MIC C. albicans M4” value (C. albicans M4) of the same compound?
Answer: Its value is 12.5 µg/mL (≈ 12 µM).
